Measured values from patent US8592405B2, “Synergistic antimicrobial composition” (Dow Global Technologies LLC, priority 2009, dated 2013).
“And” between values parts separate entries of the source, which are not always exact repeats. Equal values may be shown once.

Legend:
Format in all cases: cell-based
[1] = tested on: Penicillium funiculosum (Pf); experiment: Fungal efficacy testing, modified ASTM 5590 (12-well, dry paint film); conditions: three weeks; for % inhibition: at the Total conc; for Total conc, ppm: total biocide in paint taken as minimum inhibitory concentration, 30 C
Experimental: (§1) Samples of white acrylic latex paint free of biocides were prepared in 50 ml aliquots. Each biocide was post added to give the necessary active ingredient concentration in the paint. The total biocides concentrations tested were 750, 1500, 2500 and 5000 ppm. After biocides addition, each sample was hand mixed for a minimum of 30 sec, followed by a 3 min run on the paint shaker (RED DEVIL). Each of the paint samples as well as a control sample (containing no biocide) were used to prepare films on black plastic-vinyl chloride/acetate copolymer panels (LENETA, Mahwah, N.J.) using a 3 mil bird bar applicator. The panels were thoroughly dried for 5 days avoiding direct exposure to sunlight. Square discs (15 mm^2) were cut out from each panel and were used as the substrate for fungal and algal efficacy tests. This sample size allowed for an agar border when the sample disc was placed into the well of the test plate.
(§2) The appropriate media (BOLD'S 3N for Chlorophytes, BG-11 for Cyanobacteria, and PDA for fungi) were used to support microbial growth. The test plates were maintained at room temp (25° C.-26° C.), in a cycled light-dark environment, for 3 weeks for algae. Plates for fungal challenge tests were maintained at 30C for three weeks. At the end of incubation period the samples were scored for percent area covered by visible microbial growth.
(§3) ASTM 5590 is a standard accelerated test method for determining resistance of various coatings (including paints) to fungal defacement. To accommodate for high-throughput screening, this method was scaled down from petri plates to 12-well plates. To set up the test, an agar plug was placed at the bottom of each well of the sterile 12-well plate. A single coupon was placed with a pair of sterile forceps at the center of the agar plug (on top) with the painted surface facing upwards. Each well was inoculated with 150 μl of organism (1×10^6 cfu/ml) making sure that the whole surface (paint film as well as the agar surrounding it) was evenly covered. The plates were incubated at 30° C. in presence of moisture, for a period of three weeks. The total percent area covered was evaluated and recorded at the end of each week after the 2nd week and recorded in increments of 5%.
(§4) The SI is calculated based on F. C. Kull et.

[2] = tested on: Aureobasidium pullulans (Ap); experiment: as above; conditions: three weeks; for % inhibition: at the Total conc; for Total conc, ppm: total biocide in paint taken as minimum inhibitory concentration, 30 C
Experimental: as §1, §2, §3, §4

[3] = tested on: Stachybotris chartarum (Sc); experiment: as above; conditions: three weeks; for % inhibition: at the Total conc; for Total conc, ppm: total biocide in paint taken as minimum inhibitory concentration, 30 C
Experimental: as §1, §2, §3, §4

[4] = tested on: Cladosporium herbarum (Ch); experiment: as above; conditions: three weeks; for % inhibition: at the Total conc; for Total conc, ppm: total biocide in paint taken as minimum inhibitory concentration, 30 C
Experimental: as §1, §2, §3, §4

[5] = tested on: Alternaria alternata (Aa); experiment: as above; conditions: three weeks; for % inhibition: at the Total conc; for Total conc, ppm: total biocide in paint taken as minimum inhibitory concentration, 30 C
Experimental: as §1, §2, §3, §4

[6] = tested on: Chlorella sp. + Chlorella kessleri (Cs + Ck); experiment: Algal efficacy testing, modified ASTM 5589 (12-well, dry paint film); conditions: three weeks; for % inhibition: at the Total conc; for Total conc, ppm: total biocide in paint taken as minimum inhibitory concentration
Experimental: as §1, §2
(§5) ASTM 5589 is a standard accelerated test method for determining resistance of various coatings (including paints) to algal defacement. To accommodate for high-throughput screening, this method was scaled down from petri plates to 12-well plates. A single coupon was placed with a pair of sterile forceps at the center of the agar plug (on top) with the painted surface facing upwards. Each well was inoculated with 150 μl of organism (1×10^8 cfu/ml) making sure that the whole surface (paint film as well as the agar surrounding it) was evenly covered. The plates were incubated at room temp (25° C.-26° C.) with cyclic exposure to light (OTT-Lite model #OTL4012P, 40 Watt, 26 KLumen) and dark phases, for a period of three weeks. The total area covered was evaluated at the end of each week according to percent area covered in 5% increments. While rating the plates, notations were made for zones of inhibition.
as §4

[7] = tested on: Trentepohlia aurea + Trentepohlia odorata (Ta + To); experiment: as above; conditions: three weeks; for % inhibition: at the Total conc; for Total conc, ppm: total biocide in paint taken as minimum inhibitory concentration
Experimental: as §1, §2, §5, §4

Nostoc commune (Nc) = experiment: as above; conditions: three weeks; for % inhibition: at the Total conc; for Total conc, ppm: total biocide in paint taken as minimum inhibitory concentration
Experimental: as §1, §2, §5, §4

[8] = tested on: Calothrix parientina (Cp); experiment: as above; conditions: three weeks; for % inhibition: at the Total conc; for Total conc, ppm: total biocide in paint taken as minimum inhibitory concentration
Experimental: as §1, §2, §5, §4

Oscillatoria sp. (Os) = experiment: as above; conditions: three weeks; for % inhibition: at the Total conc; for Total conc, ppm: total biocide in paint taken as minimum inhibitory concentration
Experimental: as §1, §2, §5, §4

[9] = tested on: Gs + Os (Gloeocapsa sp. + Oscillatoria sp.); experiment: Algal efficacy testing, modified ASTM 5589 (6-well, mixed inoculum, Example 4); conditions: four weeks; for Total conc, ppm: Gs + Os mixed inoculum, NE = no end point at the concentration tested; for % inhibition: Gs + Os, at the Total conc
Experimental: A single or blend of biocides was post added into white acrylic latex paint free of biocides to give a maximum total active ingredient/s concentration tested. This paint was then diluted with a biocide free acrylic latex paint at concentrations range of 75 to 12.5% w/w to give desired concentrations for the testing. Depending on the type of biocide blends tested, the total biocides concentrations varies from 200 to 5000 ppm. After biocides addition or dilution each sample was hand mixed for at least a minute until uniformity is achieved. Each of the paint samples as well as a control sample (containing no biocide) were used to prepare films on black plastic-vinyl chloride/acetate copolymer panels (LENETA, Mahwah, N.J.) using a 3 mil bird bar applicator. The panels were thoroughly dried for at least 2 days avoiding direct exposure to sunlight. Square discs (0.5 inch^2, 13 mm^2) were cut out from each panel and were used as the substrate for fungal and algal efficacy tests. This sample size allowed for an agar border when the sample disc was placed into the well of the test plate. Each sample was tested in duplicate
as §2, with “for four” for “for 3”, “at 30 C” for “at 30C”, “for four” for “for three”, “of the” for “of”
as §5, with “6-well” for “12-well”, “upwards. Algal inoculums were prepared by mixing equal concentrations (1×10^6 cfu/ml) and equal volumes (depending on number of samples to be inoculated) of like growing organisms. In this study, Gloeocapsa sp. and Oscillatoria sp. were a mix of cyanobacteria grown on BG-11 media. Chlorella sp., Chlorella kessleri, and Nostoc commune are unicellular chlorphytes that were mixed and grown on Bold media. Trentepohlia aurea, Trentepohlia odorata, and Calotrix parientina are filamentous algae that were mixed and grown on Bold media.” for “upwards.”, “400” for “150”, “mixture (1×10^6” for “(1×10^8”, “four” for “three”

SMILES	% inhibition [1] [%]	Total conc, ppm [1]	% inhibition [2] [%]	Total conc, ppm [2]	% inhibition [3] [%]	Total conc, ppm [3] [ppm]	% inhibition [4] [%]	Total conc, ppm [4]	% inhibition [5] [%]	Total conc, ppm [5]	% inhibition [6]	% inhibition [7]	Total conc, ppm [7]	% inhibition (Nostoc commune (Nc))	Total conc, ppm (Nostoc commune (Nc)) [ppm]	% inhibition [8]	Total conc, ppm [8] [ppm]	% inhibition (Oscillatoria sp. (Os))	Total conc, ppm [9] [ppm]	% inhibition [9] [%]	also measured
CCCCCCCCn1sc(Cl)c(Cl)c1=O [DCOIT, 4,5-dichloro-2-n-octyl-4-isothiazolin-3-one]	82.5	2500 ppm	77.5	2500 ppm	32.5	5000	67.5	5000 ppm	87.5	5000 ppm	70%	72.5%	1500 ppm	82.5%	750	75%	1500	80%	287.5	100	Total conc, ppm [6]: 1500 ppm; Total conc, ppm (Oscillatoria sp. (Os)): 750 ppm
Cc1ccc(S(=O)(=O)C(I)I)cc1 [DIMTS, diiodomethyl-p-tolylsulfone]	82.5	1500 ppm	77.5	2500 ppm	50	750	72.5	750 ppm	77.5	2500 ppm	70%	62.5%	2500 ppm	80%	5000	85%	1500	80%	1875	100	Total conc, ppm [6]: 2500 ppm; Total conc, ppm (Oscillatoria sp. (Os)): 1500 ppm
CN(C)C(=O)Nc1cccc(C(F)(F)F)c1 [Fluometuron, 1,1-dimethyl-3-(α,α,α-trifluoro-m-tolyl)urea]	–	2500 ppm and 5000 ppm	–	2500 ppm and 5000 ppm	65	5000	–	2500 ppm and 5000 ppm	–	2500 ppm and 5000 ppm	100% and 90.00% and 80%	95% and 82.5% and 62.5%	750 ppm and 1500 ppm	100% and 90% and 85%	750	100% and 95% and 90%	750	95% and 62.5% and 82.5%	312.5	100	–
